Experimental data taken from PubChem BioAssay AID1919004 (Molecular Pharmacology Branch, DTP, NCI, 2023).
pIC50: −log10 of the molar value. “And” between values parts separate entries of the source, which are not always exact repeats. Identical values can stand only once.

System: 883617-216-R-J1-PDC complex spheroids, growth, % test/control
Assay: Anticancer human tumor 883617-216-R-J1-PDC patient-derived bladder carcinoma cell line growth inhibition [AhR]
Details: for viability, T/C: stronger effect = lower value
Excerpt: Multicellular complex tumor spheroid response to aryl hydrocarbon receptor antagonists in combination with a variety of drugs and investigational agents in selected tumor cell lines
The current study was undertaken to assess response to aryl hydrocarbon receptor antagonists in combination with standard-of-care drugs and investigational agents in solid tumor complex spheroid models. Complex spheroids include a stromal component modeled by human endothelial cells (HUVEC) and fibroblasts modeled by human mesenchymal stem cells (MSCs). The concentration ranges selected for each drug and investigational agent were based upon clinically achievable concentrations if the clinical Cmax of the agent was known.
Compounds. The drugs and investigational agents: BAY 2416964 (NSC825713), GNF351 (NSC835774), CH-223191 (NSC835775), CPI-455 (NSC825282), aza-TdCyd (NSC777586), decitabine (NSC127716), belinostat (NSC758774), entinostat (NSC756642), pevonedistat (NSC761192), tazemetostat (NSC777109), talazoparib (NSC765396), olaparib (NSC753686), selinexor (NSC780203), nedisertib (M3814, NSC802822), bortezomib (NSC756655), venetoclax (NSC766270), doxorubicin (NSC123127), elimusertib (BAY189344, NSC800525), ceralasertib (AZD6738, NSC777638), TAK-243 (NSC785004), alisertib (NSC759677), etoposide (NSC141540), topotecan (NSC609699), eribulin (NSC707389), gemcitabine (NSC613327), carboplatin (NSC241240), cisplatin (NSC119875), and SN-38 (NSC673596) were obtained from the National Cancer Institute (NCI) Developmental Therapeutics Program Chemical Repository (32). The FDA-approved anticancer drug set is available from the Developmental Therapeutics Program at https://dtp.cancer.gov/organization/dscb/obtaining/available plates.htm. […] The stock solutions were prepared in dimethyl sulfoxide (DMSO, Sigma-Aldrich, St. Louis, MO, cat. D2650), except for the platinum compounds which were prepared in saline (Quality Biological, Gaithersburg, MD, cat. 114-055-101), at 800-fold the tested concentration and stored at -70 degrees C prior to their use. All drugs and investigational agents were tested over a range starting from a high concentration at or near the clinical Cmax and decreasing in half-log increments. If the clinical Cmax for an agent had not been determined, the highest concentration tested was 10 microM (Table 1).
Cell Culture. All cells were maintained in an incubator at 37 degrees C and 5% CO2 with 95% humidity. The PDC lines were cultured according to standard operating procedures established by the NCI PDMR (https://pdmr.cancer.gov). Briefly, all PDCs were thawed and cultured in Matrigel-coated flasks prepared with a working solution of 1X Ham's F-12 nutrient mix, without supplementation (Invitrogen, Waltham, MA, cat. 11765054), 100 U/mL penicillin-streptomycin (Invitrogen, cat. 15140122), and 2.5% Matrigel (Corning Inc., Corning, NY, cat. 354248) for the first three passages. All PDCs were cultured in complete DMEM/F-12 media containing advanced DMEM/F-12 (Invitrogen, cat. 12634028), 4.9% defined fetal bovine serum, heat inactivated (HyClone Laboratories Inc., Logan, UT, cat. SH30070.03HI), 389 ng/mL hydrocortisone (Sigma-Aldrich, cat. H4001), 9.7 ng/mL human EGF recombinant protein (Invitrogen, cat. PHG0313), 23.4 microg/mL adenine (Sigma-Aldrich, cat. A2786), 97.3 U/mL penicillin-streptomycin (Invitrogen, cat. 15140122), 1.9 mM L-glutamine (Invitrogen, cat. 25030081), and 9.7 microM Y-27632 dihydrochloride (Tocris Bioscience, Bristol, United Kingdom, cat. 1254). The PDCs were cultured in complete DMEM/F12 media without 10 microM Y-27632 dihydrochloride for at least two passages prior to the screen. The established cell lines NCI-H1341 and […] were cultured in DMEM/F-12, HEPES (Invitrogen, cat. 11330032), 5% defined fetal bovine serum (HyClone Laboratories Inc., cat. SH30070.03), ITS premix universal culture supplement [insulin (5 microg/mL), transferrin (5 microg/mL), and selenious acid (5 ng/mL)] […]

[1] = curve of first compound, second compound 0.1 µM
[2] = curve of first compound, second compound 0.316 µM
[3] = curve of first compound, second compound 1 µM
[4] = curve of first compound, second compound 3.16 µM
[5] = curve of first compound, second compound 10 µM
[6] = second compound 0.1 µM, first compound 0.0316 µM
[7] = second compound 0.1 µM, first compound 0.1 µM
[8] = second compound 0.1 µM, first compound 0.316 µM
[9] = second compound 0.1 µM, first compound 1 µM
[10] = second compound 0.1 µM, first compound 3.16 µM
[11] = second compound 0.1 µM, first compound 10 µM
[12] = second compound 0.316 µM, first compound 0.0316 µM
[13] = second compound 0.316 µM, first compound 0.1 µM
[14] = second compound 0.316 µM, first compound 0.316 µM
[15] = second compound 0.316 µM, first compound 1 µM
[16] = second compound 0.316 µM, first compound 3.16 µM
[17] = second compound 0.316 µM, first compound 10 µM
[18] = second compound 1 µM, first compound 0.0316 µM
[19] = second compound 1 µM, first compound 0.1 µM
[20] = second compound 1 µM, first compound 0.316 µM
[21] = second compound 1 µM, first compound 1 µM
[22] = second compound 1 µM, first compound 3.16 µM
[23] = second compound 1 µM, first compound 10 µM
[24] = second compound 3.16 µM, first compound 0.0316 µM
[25] = second compound 3.16 µM, first compound 0.1 µM
[26] = second compound 3.16 µM, first compound 0.316 µM
[27] = second compound 3.16 µM, first compound 1 µM
[28] = second compound 3.16 µM, first compound 3.16 µM
[29] = second compound 3.16 µM, first compound 10 µM
[30] = second compound 10 µM, first compound 0.0316 µM
[31] = second compound 10 µM, first compound 0.1 µM
[32] = second compound 10 µM, first compound 0.316 µM
[33] = second compound 10 µM, first compound 1 µM
[34] = second compound 10 µM, first compound 3.16 µM
[35] = second compound 10 µM, first compound 10 µM
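Also: exposure lasted 7 days after dosing on day 3 of spheroid growth.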

| SMILES | pIC50 [1] | pIC50 [2] | pIC50 [3] | pIC50 [4] | pIC50 [5] | viability, T/C [6] [%] | viability, T/C [7] [%] | viability, T/C [8] [%] | viability, T/C [9] [%] | viability, T/C [10] [%] | viability, T/C [11] [%] | viability, T/C [12] [%] | viability, T/C [13] [%] | viability, T/C [14] [%] | viability, T/C [15] [%] | viability, T/C [16] [%] | viability, T/C [17] [%] | viability, T/C [18] [%] | viability, T/C [19] [%] | viability, T/C [20] [%] | other results |
| --- | --- | --- | --- | --- | --- | --- | --- | --- | --- | --- | --- | --- | --- | --- | --- | --- | --- | --- | --- | --- | --- |
| CC1COCCN1c1cc(-c2ccnn2C)c2ccnc(-c3ccn[nH]3)c2n1 (configuration not stated) | – | – | – | – | – | – | – | – | – | – | – | – | – | – | – | – | – | – | – | – | viability, T/C (compound 0.00316 µM): 104% and 105% and 107%; viability, T/C (compound 0.01 µM): 97.6% and 103% and 86.6%; viability, T/C (compound 0.0316 µM): 100% and 93.5% and 68%; viability, T/C (compound 0.1 µM): 72.3% and 75.9% and 62.1%; viability, T/C (compound 0.316 µM): 65.9% and 55.5% and 80.2%; viability, T/C (compound 1 µM): 51% and 51.4% and 54.9%; pIC50 (curve of compound): < 6.00 |
| O=C(c1cc(Cc2n[nH]c(=O)c3ccccc23)ccc1F)N1CCN(C(=O)C2CC2)CC1 + Cc1ccccc1N=Nc1ccc(NC(=O)c2ccnn2C)c(C)c1 | < 5.00 | < 5.00 | < 5.00 | < 5.00 | < 5.00 | 88.7 | 90.9 | 98.7 | 84.3 | 84.1 | 81 | 84.7 | 82.1 | 76.5 | 86.5 | 74.8 | 85.4 | 89 | 83.2 | 87.2 | viability, T/C [21]: 80.7%; viability, T/C [22]: 80.7%; viability, T/C [23]: 71%; viability, T/C [24]: 82.8%; viability, T/C [25]: 85.6%; viability, T/C [26]: 86.8%; viability, T/C [27]: 75.2%; viability, T/C [28]: 71.3%; viability, T/C [29]: 73.9%; viability, T/C [30]: 82.3%; viability, T/C [31]: 76.8%; viability, T/C [32]: 78.9%; viability, T/C [33]: 70.6%; viability, T/C [34]: 65.9%; viability, T/C [35]: 64.4% |
| CC1COCCN1c1cc(C2(S(C)(=N)=O)CC2)nc(-c2ccnc3[nH]ccc23)n1 (configuration not stated) + CC(CO)NC(=O)c1cc(-c2ccc(Cl)cc2)nn(-c2cnn(C)c2)c1=O | < 5.00 | < 5.00 | < 5.00 | < 5.00 | < 5.00 | 155 | 133 | 120 | 78.7 | 86.9 | 108 | 73.3 | 143 | 107 | 56.3 | 70.1 | 72.1 | 142 | 102 | 152 | viability, T/C [21]: 121%; viability, T/C [22]: 103%; viability, T/C [23]: 77.5%; viability, T/C [24]: 103%; viability, T/C [25]: 94.4%; viability, T/C [26]: 132%; viability, T/C [27]: 132%; viability, T/C [28]: 86.2%; viability, T/C [29]: 66.5%; viability, T/C [30]: 127%; viability, T/C [31]: 101%; viability, T/C [32]: 125%; viability, T/C [33]: 153%; viability, T/C [34]: 107%; viability, T/C [35]: 114% |
